Reference: PMC8277899, “A novel RyR1-selective inhibitor prevents and rescues sudden death in mouse models of malignant hyperthermia and heat stroke” (Nature Communications, 2021)
“And” between values parts separate entries of the source, which are not always exact repeats. Equal values may be shown once. Read-outs that look alike come from different tables or passages of the source.

System: R2509C mice
Assay type: in vivo, mouse
Settings: for Survival 60 min after administration (survivors/total) / mice surviving 60 min after administration: rescue
[1] = preventive, 10 mg/kg i.p. 10 min before isoflurane, 10 mg/kg

CCCCCCCCn1cc(C(=O)O)c(=O)c2cc3c(cc21)OCO3 [Cpd1, 6,7-(methylenedioxy)-1-octyl-4-quinolone-3-carboxylic acid]
effect on rise in rectal temperature (1 mg/kg i.p. 8 times at 10 min intervals, isoflurane): successfully prevented rise in the rectal temperature | Survival 90 min after isoflurane challenge (survivors/total) (1 mg/kg i.p. 8 times every 10 min): all the mice survived | effect of second and third administrations on rectal temperature (3 mg/kg i.p. each time rectal temperature reached 39 °C, isoflurane): successfully decreased the rectal temperature | effect on rise in rectal temperature (preventive, 3 mg/kg i.p.): did not prevent rise in rectal temperature | Survival after 90 min of anesthesia (survivors/total) (preventive, 3 mg/kg i.p. 10 min before isoflurane, 3 mg/kg): 1 out of 6 | Survival after 90 min of anesthesia (survivors/total) (preventive, 3 mg/kg i.p. 10 min before isoflurane, listed as Cpd 1, 3 mg/kg): 1/6 | Time to death (preventive, 3 mg/kg i.p., n = 5): 47 ± 15 min | effect on rise in rectal temperature (preventive, 10 mg/kg i.p.): successfully prevented any rise in rectal temperature | Maximum rectal temperature [1]: 36.1797 °C and 35.7812 °C and 35.4844 °C and 36.3594 °C and 36.1344 °C and 36.1406 °C | Survival after 90 min of anesthesia (survivors/total) [1]: All the treated mice survived | Survival 60 min after administration (survivors/total) (3 mg/kg i.p. at 39 °C): 6/10 | mice surviving 60 min after administration (3 mg/kg i.p. at 39 °C): 60% | Survival 60 min after administration (survivors/total) (10 mg/kg i.p. at 39 °C): 8/8 | mice surviving 60 min after administration (10 mg/kg i.p. at 39 °C): 100%
